Data as given in patent US20250360109A1, “COMPOSITIONS AND METHODS FOR TREATING DEPRESSION IN FEMALES” (priority 2022, published 2025).

Legend:
Assay type in all cases: in vivo, human
[1] = system: adult subjects with major depressive disorder (MDD); assay: Phase 2 placebo-controlled study in MDD, Quick Inventory of Depressive Symptomology-Self Report (QIDS-SR); details: mITT; for Change from Baseline, QIDS Total at Week 2, LSM Difference (95% CI) / Change from Baseline, QIDS Total at Week 4, LSM Difference (95% CI): 20 mg/day vs Placebo; for Change from Baseline, QIDS Total at Week 2, Mean (SD) / Change from Baseline, QIDS Total at Week 2, Median / Change from Baseline, QIDS Total at Week 4, Mean (SD) / Change from Baseline, QIDS Total at Week 4, Median / QIDS Total at Week 2, Mean (SD) / QIDS Total at Week 2, Median / QIDS Total at Week 4, Mean (SD) / QIDS Total at Week 4, Median: 20 mg/day
Description: (§1) A Phase 2, multicenter, double-blind, randomized, placebo-controlled study of the safety and efficacy of SP-624 in the treatment of adult subjects with major depressive disorder (MDD) as defined by the Diagnostic and Statistical Manual of Mental Disorders, Fifth Edition (DSM-5) was carried out. Following the successful completion of a Screening Phase, subjects were randomized to one of two treatment groups in a 1:1 ratio and received Compound 1 (SP-624) or placebo over a treatment period of four weeks (Treatment Group #1: SP-624 20 mg/day; Treatment Group #2: Placebo).
(§2) Prior to initiating the 4-week treatment period, subjects completed a Screening/Baseline period of up to 28 days, during which time all screening assessments were performed, and any current depression medications discontinued. All screening assessments were completed before discontinuing any current depression medications. Subjects returned for a Baseline Visit to complete efficacy and safety assessments. During the treatment period, subjects returned to the investigative site to complete efficacy and safety assessments at the end of Weeks 1, 2, 3, and 4. After the final dose of study drug, subjects completed a follow-up period of two weeks and returned at the end of Weeks 5 and 6. Subjects may be treated with anti-depressant medications according to physician recommendations after completion of the Week 5 Visit.
(§3) Each dose of Compound 1 was supplied as two capsules, each containing 10 mg of active pharmaceutical ingredient (API). Matching placebo capsules identical in shape and color to the active capsules were used.
(§4) Secondary efficacy endpoints included: • Change from Baseline to Weeks 1, 2, and 3 in MADRS total score, • Change from Baseline to Weeks 1, 2, 3, and 4 in Clinical Global Impression-Severity (CGI-S) total score, • Change from Baseline to Week 5 and change from Week 4 to Week 5 in MADRS total score and CGI-S total score, • Change from Baseline to Week 2 and Week 4 in the 17-item Hamilton Depression Rating Scale (HAM D-17) total score, • Change from Baseline to Week 2 and Week 4 in the Sheehan Disability Scale (SDS), • Change from Baseline to Week 2 and Week 4 in the Quick Inventory of Depressive Symptomology-Self Report (QIDS-SR), and • Change from Baseline to Week 2 and Week 4 in the Quality of Life Enjoyment and Satisfaction Questionnaire-Short Form (Q-LES-Q-SF).

[2] = system: adult subjects with major depressive disorder (MDD); assay: Phase 2 placebo-controlled study in MDD, Quality of Life Enjoyment and Satisfaction Questionnaire-Short Form (Q-LES-Q-SF); details: mITT; for Change from Baseline, Q-LES-Q-SF Total at Week 2, LSM Difference (95% CI) / Change from Baseline, Q-LES-Q-SF Total at Week 4, LSM Difference (95% CI): 20 mg/day vs Placebo; for Change from Baseline, Q-LES-Q-SF Total at Week 2, Mean (SD) / Change from Baseline, Q-LES-Q-SF Total at Week 2, Median / Change from Baseline, Q-LES-Q-SF Total at Week 4, Mean (SD) / Change from Baseline, Q-LES-Q-SF Total at Week 4, Median / Q-LES-Q-SF Total at Week 2, Mean (SD) / Q-LES-Q-SF Total at Week 2, Median / Q-LES-Q-SF Total at Week 4, Mean (SD) / Q-LES-Q-SF Total at Week 4, Median: 20 mg/day
Description: as §1, §2, §3, §4

[3] = system: adult subjects with major depressive disorder (MDD); assay: Phase 2 placebo-controlled study in MDD, Montgomery-Asberg Depression Rating Scale (MADRS) total score; details: Female, mITT
Description: as §1, §2, §3
The primary efficacy endpoint was Change from Baseline to Week 4 in Montgomery-Asberg Depression Rating Scale (MADRS) total score.
as §4

COC1=CC(=O)C[C@@H](C)[C@]12Oc1c(Cl)c(-c3nnc(C)o3)cc(OC)c1C2=O [SP-624, (2S,6′R)-7-Chloro-2′,4-dimethoxy-6′-methyl-6-(5-methyl-1,3,4-oxadiazol-2-yl)-3H-spiro[1-benzofuran-2,1′-cyclohex [2]ene]-3,4′-dione]
Change from Baseline, QIDS Total at Week 2, LSM Difference (95% CI) ([1]; Female): −1.1 (−2.4, 0.3) | Change from Baseline, QIDS Total at Week 4, LSM Difference (95% CI) ([1]; Female): −2.0 (−3.3, −0.6) | Change from Baseline, QIDS Total at Week 2, Mean (SD) ([1]; Female): −3.9 (4.37) | Change from Baseline, QIDS Total at Week 2, Median ([1]; Female): −3 | Change from Baseline, QIDS Total at Week 4, Mean (SD) ([1]; Female): −5.7 (4.76) | Change from Baseline, QIDS Total at Week 4, Median ([1]; Female): −5 | QIDS Total at Week 2, Mean (SD) ([1]; Female): 11.7 (4.87) | QIDS Total at Week 2, Median ([1]; Female): 12 | QIDS Total at Week 4, Mean (SD) ([1]; Female): 10.2 (4.69) | QIDS Total at Week 4, Median ([1]; Female): 10 | Change from Baseline, QIDS Total at Week 2, LSM Difference (95% CI) ([1]; Male): 1.2 (−0.9, 3.2) | Change from Baseline, QIDS Total at Week 4, LSM Difference (95% CI) ([1]; Male): 1.1 (−0.8, 3.0) | Change from Baseline, QIDS Total at Week 2, Mean (SD) ([1]; Male): −2.1 (5.50) | Change from Baseline, QIDS Total at Week 2, Median ([1]; Male): −2 | Change from Baseline, QIDS Total at Week 4, Mean (SD) ([1]; Male): −3.3 (4.46) | Change from Baseline, QIDS Total at Week 4, Median ([1]; Male): −4 | QIDS Total at Week 2, Mean (SD) ([1]; Male): 11.7 (5.27) | QIDS Total at Week 2, Median ([1]; Male): 12 | QIDS Total at Week 4, Mean (SD) ([1]; Male): 10.4 (4.55) | QIDS Total at Week 4, Median ([1]; Male): 11 | Change from Baseline, Q-LES-Q-SF Total at Week 2, LSM Difference (95% CI) ([2]; Female): 1.1 (−1.8, 3.9) | Change from Baseline, Q-LES-Q-SF Total at Week 4, LSM Difference (95% CI) ([2]; Female): 3.3 (−0.3, 6.8) | Change from Baseline, Q-LES-Q-SF Total at Week 2, Mean (SD) ([2]; Female): 7.8 (10.32) | Change from Baseline, Q-LES-Q-SF Total at Week 2, Median ([2]; Female): 6 | Change from Baseline, Q-LES-Q-SF Total at Week 4, Mean (SD) ([2]; Female): 11.4 (14.11) | Change from Baseline, Q-LES-Q-SF Total at Week 4, Median ([2]; Female): 10 | Q-LES-Q-SF Total at Week 2, Mean (SD) ([2]; Female): 59.2 (11.32) | Q-LES-Q-SF Total at Week 2, Median ([2]; Female): 59 | Q-LES-Q-SF Total at Week 4, Mean (SD) ([2]; Female): 62.1 (13.87) | Q-LES-Q-SF Total at Week 4, Median ([2]; Female): 59 | Change from Baseline, Q-LES-Q-SF Total at Week 2, LSM Difference (95% CI) ([2]; Male): −2.2 (−6.7, 2.3) | Change from Baseline, Q-LES-Q-SF Total at Week 4, LSM Difference (95% CI) ([2]; Male): −1.3 (−6.4, 3.7) | Change from Baseline, Q-LES-Q-SF Total at Week 2, Mean (SD) ([2]; Male): 5.5 (10.39) | Change from Baseline, Q-LES-Q-SF Total at Week 2, Median ([2]; Male): 4 | Change from Baseline, Q-LES-Q-SF Total at Week 4, Mean (SD) ([2]; Male): 7.1 (11.54) | Change from Baseline, Q-LES-Q-SF Total at Week 4, Median ([2]; Male): 6 | Q-LES-Q-SF Total at Week 2, Mean (SD) ([2]; Male): 59.5 (12.80) | Q-LES-Q-SF Total at Week 2, Median ([2]; Male): 59 | Q-LES-Q-SF Total at Week 4, Mean (SD) ([2]; Male): 61.5 (12.26) | Q-LES-Q-SF Total at Week 4, Median ([2]; Male): 61 | Change from Baseline, MADRS Total at Week 1, LSM Difference (95% CI) ([3]; 20 mg/day vs Placebo, MMRM): −0.9 (−2.8, 1.1) | Change from Baseline, MADRS Total at Week 2, LSM Difference (95% CI) ([3]; 20 mg/day vs Placebo, MMRM): −1.9 (−4.3, 0.5) | Change from Baseline, MADRS Total at Week 3, LSM Difference (95% CI) ([3]; 20 mg/day vs Placebo, MMRM): −3.5 (−6.2, −0.8) | Change from Baseline, MADRS Total at Week 4, LSM Difference (95% CI) ([3]; 20 mg/day vs Placebo, MMRM): −3.9 (−6.8, −1.0) | Change from Baseline, MADRS Total at Week 1, Mean (SD) ([3]; 20 mg/day): −6.6 (6.19) | Change from Baseline, MADRS Total at Week 1, Median ([3]; 20 mg/day): −6 | Change from Baseline, MADRS Total at Week 2, Mean (SD) ([3]; 20 mg/day): −10.1 (8.20) | Change from Baseline, MADRS Total at Week 2, Median ([3]; 20 mg/day): −8 | Change from Baseline, MADRS Total at Week 3, Mean (SD) ([3]; 20 mg/day): −12.5 (9.74) | Change from Baseline, MADRS Total at Week 3, Median ([3]; 20 mg/day): −11 | Change from Baseline, MADRS Total at Week 4, Mean (SD) ([3]; 20 mg/day): −13.5 (10.40)
